“And” between values parts separate entries of the source, which are not always exact repeats. Equal entries are not always repeated.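 Briefly, cells in 96-well plates were exposed to five compound concentrations for 48 h, and endpoints were estimated by linear interpolation. GI50 marks 50% less growth. At the TGI there is no net growth.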
What was measured:
Assay in all cases: growth of human tumour cells (NCI), 48 h
786-0 renal = test system: 786-0 renal
COLO 205 colon = test system: COLO 205 colon
SK-MEL-28 melanoma = test system: SK-MEL-28 melanoma
MOLT-4 leukemia = test system: MOLT-4 leukemia
DMS 273 small cell lung = test system: DMS 273 small cell lung
DMS 114 small cell lung = test system: DMS 114 small cell lung
DU-145 prostate = test system: DU-145 prostate
OVCAR-3 ovarian = test system: OVCAR-3 ovarian
BT-549 breast = test system: BT-549 breast
SNB-19 CNS = test system: SNB-19 CNS

Structure (SMILES)	TGI (786-0 renal)	GI50 (COLO 205 colon)	TGI (COLO 205 colon)	GI50 (SK-MEL-28 melanoma)	GI50 (MOLT-4 leukemia)	GI50 (DMS 273 small cell lung)	TGI (DMS 273 small cell lung)	TGI (DMS 114 small cell lung)	GI50 (DU-145 prostate)	TGI (DU-145 prostate)	GI50 (OVCAR-3 ovarian)	TGI (OVCAR-3 ovarian)	GI50 (BT-549 breast)	TGI (BT-549 breast)	GI50 (SNB-19 CNS)	TGI (SK-MEL-28 melanoma)	TGI (MOLT-4 leukemia)	TGI (SNB-19 CNS)	GI50 (786-0 renal)	GI50 (DMS 114 small cell lung)
CC[C@](O)(C(=O)O)c1cc2n(c(=O)c1CO)Cc1cc3ccccc3nc1-2	0.0525 µM	0.0556 µM and 0.296 µM	0.779 µM and 2.21 µM and 3.85 µM	0.147 µM and 0.169 µM and 0.0493 µM	< 0.0025 µM	0.0316 µM	0.132 µM and 0.0963 µM	1.11 µM and 0.412 µM	< 0.0025 µM	0.559 µM and 0.417 µM	0.0775 µM and 0.268 µM and 0.0965 µM	0.323 µM and 1.18 µM and 0.866 µM	0.107 µM	11.5 µM and 18.5 µM	0.00337 µM and 0.02 µM	–	–	–	–	–
O=C1c2cnccc2Cc2cccc3c2N1c1ccccc1S3	97.8 µM	–	59.2 µM	–	–	–	78.2 µM	73.6 µM	–	–	–	44.5 µM	–	–	–	78.2 µM	> 100 µM	74.6 µM	–	–
O=C1C2Cc3ccccc3CN2C(=O)N1CN1CCN(CN2C(=O)C3Cc4ccccc4CN3C2=O)CC1 (configuration not stated)	> 100 µM	–	> 100 µM	–	–	–	> 100 µM	> 100 µM	–	–	–	> 100 µM	–	–	–	> 100 µM	> 100 µM	> 100 µM	–	–
OCCc1cnco1	> 100 µM	–	> 100 µM	–	–	–	> 100 µM	> 100 µM	–	–	–	> 100 µM	–	–	–	> 100 µM	> 100 µM	> 100 µM	–	–
CCC[CH2][Sn]1([CH2]CCC)[O]C(=O)C[S]1	2.83 µM	1.75 µM	4.11 µM	1.35 µM	1.39 µM	2.11 µM	6.07 µM	4.08 µM	–	–	1.57 µM	3.03 µM	–	–	1.22 µM	2.69 µM	5.46 µM	2.5 µM	1.49 µM	1.29 µM
Cn1c(=O)c(C(c2ccccc2)c2c(O)c3ccccc3n(C)c2=O)c(O)c2ccccc21	> 100 µM	–	> 100 µM	–	–	–	> 100 µM	> 100 µM	–	–	–	> 100 µM	–	–	–	> 100 µM	> 100 µM	> 100 µM	–	–
C#CCOCn1cnc2ncnc(Cl)c21	> 100 µM	–	> 100 µM	–	–	–	> 100 µM	> 100 µM	–	–	–	> 100 µM	–	–	–	> 100 µM	> 100 µM	> 100 µM	–	–
O=C1Cc2ccccc2N1/N=C\c1ccc(O)cc1	> 100 µM	–	> 100 µM	–	–	–	> 100 µM	> 100 µM	–	–	–	> 100 µM	–	–	–	> 100 µM	> 100 µM	> 100 µM	–	–
C(=C1\CCC/C(=C/c2ccccc2)C1=NNc1ccccc1)/c1ccccc1	> 100 µM	–	> 100 µM	–	–	–	> 100 µM	> 100 µM	–	–	–	> 100 µM	–	–	–	> 100 µM	> 100 µM	> 100 µM	–	–
Cn1c2ccccc2c2cc(-c3ccccc3)c3c(c21)C(=O)C=CC3=O	22.7 µM	–	35.1 µM	–	–	–	40.6 µM	19.8 µM	–	> 100 µM	–	31.7 µM	–	26.5 µM	–	40.2 µM	21.8 µM	> 100 µM	–	–
